Results on one compound are retold here after patent publication US20220016200A1, “PHARMACEUTICAL COMPOSITION FOR THE TREATMENT OF CYSTIC FIBROSIS” (GALENUS G.H. AG, priority 2018, published 2022).

Where two headings read alike, the source gives them in different places. Bridge positions count the residues as written; N and C are the ends. Square brackets hold non-standard residues; d marks the D form. Peptide text beside a SMILES is read from it. * marks the point of attachment. Heptanoyl(5-Me) = CCC(C)CCCC(=O)*; Dab = NCC[C@H](N)C(=O)O

For assay [1], the system named is A. nosocomialis strain (1461911 IHMA). The assay is described as follows: Pneumonic mouse model, colistin resistant strain. It is filed as in vivo, Acinetobacter nosocomialis. Particulars: BALB/c mice, 3 per group, one intramuscular dose 24 hours after inoculation, combination groups stated together for both strains (6 mice). The method, then: (§1) One colistin susceptible (MIC 1 mg/L) A. nosocomialis strain (1204194 IHMA) and one colistin resistant (MIC 4 mg/L) A. nosocomialis strain (1461911 IHMA) are used. […] Fresh brain heart infusion broth (Merck, Darmstadt, Germany) bacterial cultures, in an aerobic atmosphere in the logarithmic growth phase (4-5 hours) at 37° C., are adjusted to a concentration of 1.0×10^6 colony forming units (CFU)/mL, as verified by both spectrophotometry (OD600 0.01-0.02 nm) and colony counting.
(§2) A pneumonic mouse model was used. 8- to 12-week-old, specific-pathogen free, male or female BALB/c mice, with 25-35 g in weight, are used for the study Animals have free access to food and water except during experimental procedures. All studies are performed in accordance with the ethical guidelines for the care and use of laboratory animals, and the protocol is approved by an independent ethical commission.
(§3) For inoculation, fresh inocula are prepared for each experiment from frozen stocks of the two A. nosocomialis isolates (1204194 and 1461911 IHMA). Broth cultures of freshly plated A. nosocomialis bacteria are grown to logarithmic phase overnight to an absorbance of 0.3 at 630 nm and diluted to 10^7 CFU/ml in saline. Mice are anesthetized by intraperitoneal (i.p.) injection of 12.5 mg/kg (5 μl) xylazine and 80 mg/kg (25 μl) ketamine and then inoculated intranasally with 0.05 ml of this bacterial suspension. […]

In a further assay the test system is A. nosocomialis 1461911. The assay is described as follows: Checkerboard fusidic acid (FD) and colistin sulfate (CS), MIC/FIC and MBC/FBC. Format: cell-based, Acinetobacter nosocomialis. The method, then:
Checkerboard assays between fusidic acid (FD) and colistin sulfate (CS) with a bacterial load 5(1-10)*10^5 CFU/ml in cationic adapted Mueller Hinton broth (CAMHB). • a. Antimicrobial stock solutions were prepared using sterile distilled water; • b. CS was added along the ordinate; FD was added along the abscissa to 96 well, flat bottom, polystyrene panels with no treatment. Colistin alone was tested in triplicates; • c. Serial 2-fold dilutions starting with 640 […] CS and 640 μg/ml FD were made; 15 μl volume of the serial dilutions were added for each agent to the appropriate wells—final volume at 30 μl; • d. For each agent tested alone an additional 15 μl media was added to the well. 30 μl were added in control wells where none of the agent was tested. The negative control well contains 150 μl media without any additions; • e. From an overnight bacterial culture in tryptic soy broth, 100 μL was added to 10 mL of fresh tryptic soy broth. This was then incubated at 37° C. for 1.5 hour at 180 rpm; • f. Bacteria in 120 μl CAMHB were added to each well (end concentration 5(1-10)*10^5 CFU/ml); • g. Plates were incubated at 37° C. in an ambient air incubator for 24 h • h. Turbidity at OD600 is determined with a plate photometer • i. By using a one-time inoculator 3 μl from each well of the 96-well plate were transferred to three blood agar plates. The plates were incubated over night at 37° C. in an ambient air incubator; • j. MIC values are defined as lowest concentration which restricts bacterial growth to OD600≤0.1; • k. MBC values were determined by visual reading the lowest concentration which inhibits 99.9% of the growth of bacteria in the wells; • l. Determination of the fractional inhibitory concentration (FIC) index and fractional bactericidal concentration (FBC) index and characterization of antimicrobial interactions was assessed;
FIC calculation was carried out as: (MIC of drug A, tested in combination)/(MIC of drug A, tested alone)+(MIC of drug B, tested in combination)/(MIC of drug B, tested alone). FBC calculation was carried out just as well;
Interactive categories were calculated from checkerboard analysis using MIC results from testing each agent alone and MIC results from the combination wells adjacent to the wells with growth in them.
Determination of the fractional inhibitory concentration (FIC) index and fractional bactericidal concentration (FBC) index and characterization of antimicrobial interactions was assessed:
(ii) Indifference; FIC/FBC>0.5 to <4.0
(iii) Antagonism; FIC/FBC≥4.0
b. Acinetobacter nosocomialis 1461911 (IHMA), colistin resistant (3xCS 4/8)

For assay [2], the system named is A. nosocomialis strain (1204194 IHMA). Nature of the assay: Pneumonic mouse model, colistin susceptible strain. It is filed as in vivo, Acinetobacter nosocomialis. The method, then:
as §1, §2, §3

For orientation: MBC means the lowest tested concentration that kills the bacteria rather than only halting them. Turning to `CCC(C)CCCC(=O)N[C@@H](CCN)C(=O)N[C@H](C(=O)N[C@@H](CCN)C(=O)N[C@H]1CCNC(=O)[C@H]([C@@H](C)O)NC(=O)[C@H](CCN)NC(=O)[C@H](CCN)NC(=O)[C@H](CC(C)C)NC(=O)[C@@H](CC(C)C)NC(=O)[C@H](CCN)NC1=O)[C@@H](C)O` (stereo partly drawn) [CS, colistin sulphate] ({Heptanoyl(5-Me)}-[Dab]T[Dab][Dab][Dab][dL]L[Dab][Dab]T; lactam 4-C), the “mice that survive until day 3” value was 0/3 in assay [1] and 2/3 in assay [2] (BALB/c mice, 3 per group, colistin susceptible strain, one intramuscular dose 24 hours after inoculation, combination groups stated together for both strains (6 mice)). The MIC in the assay on A. nosocomialis 1461911 (A. nosocomialis 1461911, agent alone, CAMHB, 1*10^6 CFU/ml, 24 h) was found to be 4 mg/1l; in the assay on A. nosocomialis 1461911 (organism list of Example 3, Acinetobacter nosocomialis 1461911, 3x, read-out: Colistin CS MIC), 4 µg/mL. Besides, the MBC in the assay with A. nosocomialis 1461911 (Acinetobacter nosocomialis, A. nosocomialis 1461911, agent alone, CAMHB, 1*10^6 CFU/ml) was found to be 8 µg/mL. The “numbers of A. nosocomialis in the lung tissue” value in assay [2] (day 3, confirmed by qRT-PCR, two surviving monotherapy mice compared with all mice treated with colistin sulphate and teicoplanin or colistin sulphate and fusidic acid) is reported as “significantly higher numbers”.
